Tests used:
[1] = target: T1, MMACHC-R161Q (Homo sapiens, UniProt Q9Y4U1, R161Q); assay: Differential scanning fluorimetry (DSF), stabilization by cobalamins; format: binding; settings: for ΔTm max: Tm at 50 μM ligand minus Tm at 0 μM ligand; for ΔTm max / AC50: DSF; for AC50: half-maximal effective ligand concentration for stabilization, 3 μM protein, fit of ΔTm vs ligand concentration
T1 construct: His-tag (N, cleaved yes); made in house; host or cells: E. coli BL21 DE3
T1 sequence (Q9Y4U1 1-282 R161Q): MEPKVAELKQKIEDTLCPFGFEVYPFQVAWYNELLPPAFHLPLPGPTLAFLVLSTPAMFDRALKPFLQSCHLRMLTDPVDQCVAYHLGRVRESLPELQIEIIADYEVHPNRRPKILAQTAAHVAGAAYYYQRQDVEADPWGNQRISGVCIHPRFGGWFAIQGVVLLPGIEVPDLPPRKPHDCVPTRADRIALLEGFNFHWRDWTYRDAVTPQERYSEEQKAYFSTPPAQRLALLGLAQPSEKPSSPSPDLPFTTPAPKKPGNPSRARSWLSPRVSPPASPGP
Protocol: (§1) DSF was performed and analyzed as described in Niesen et al., with minor modifications. Purified MMACHC proteins were diluted to 0.1 mg/ml (3 μM) in buffer (10 mM HEPES pH 7.5, 0.5 M NaCl, 5% glycerol) with 1:1000 Sypro Orange (Invitrogen) and run in triplicate. The proteins were heated from 5 to 75 °C with a ramp rate of 1 °C/min in a thermocycler (Bio-rad C1000 Thermocycler, CFX96 Real-time system). All graphs were normalized so that minimum fluorescence was set to 0 and maximum fluorescence set to 1. […] Final graphs and AC50’s were generated using Kadeidagraph 4.0 software (Synergy Software, Reading, PA). AC50’s were determined by fitting the ΔTm vs. ligand concentration curves to the equation ΔTm = ΔTm max[S]/(AC50 + [S]) where ΔTm is the change in melting temperature (Tm[protein + ligand] − Tm[protein]), ΔTm max is the maximal change in Tm at saturating (50 μM) ligand concentration and [S] is the ligand concentration.
(§2) Wild-type (MMACHC-wt) and mutant (MMACHC-R161Q) MMACHC were expressed and purified to >95% purity, with His-tag removed, as judged by SDS–PAGE (Fig. 2A). In order to investigate the thermostability of MMACHC we used DSF, a method that measures protein stability and ligand-induced changes in stability [[20,21]]. DSF uses an environmentally sensitive dye, such as Sypro orange, to monitor protein-unfolding caused by heat denaturation. As the protein unfolds, the dye, which has a higher fluorescence quantum yield in nonpolar environments than in aqueous media, binds to hydrophobic regions of the protein, causing a large increase in fluorescence [[22,23]]. Protein stability is expressed as the melting point of the protein (Tm), that is, the transition midpoint of the fluorescence curve, corresponding to the temperature at which half of the protein molecules are folded and half are unfolded. […] Even lower was the stability of MMACHC-R161Q (Tm = 37.1 ± 0.7 °C) (Fig. 2B). The difference in Tm was small but nonetheless significant (p < 0.01). A second difference between the wild-type and mutant proteins was the shape of the unfolding curves, with the unfolding of the mutant protein showing high cooperativity indicating a two-state unfolding mechanism while the unfolding of the wild-type protein stretched over a larger temperature range and comprised two phases (Fig. 2B; also Fig. 3A at 0 μM OHCbl).

[2] = target: T2, MMACHC-wt (Homo sapiens, UniProt Q9Y4U1); assay: as above; format: binding; settings: for ΔTm max: Tm at 50 μM ligand minus Tm at 0 μM ligand; for AC50: half-maximal effective ligand concentration for stabilization, 3 μM protein, fit of ΔTm vs ligand concentration
T2 construct: His-tag (N, cleaved yes); made in house; host or cells: E. coli BL21 DE3
T2 sequence (Q9Y4U1 1-282): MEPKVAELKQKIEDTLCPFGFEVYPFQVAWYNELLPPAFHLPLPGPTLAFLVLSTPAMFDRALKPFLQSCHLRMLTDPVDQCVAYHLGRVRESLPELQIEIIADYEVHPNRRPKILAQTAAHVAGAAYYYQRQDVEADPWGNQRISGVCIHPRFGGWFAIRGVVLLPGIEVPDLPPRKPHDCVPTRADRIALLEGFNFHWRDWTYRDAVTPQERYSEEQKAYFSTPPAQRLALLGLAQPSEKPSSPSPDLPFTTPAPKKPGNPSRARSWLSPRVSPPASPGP
Protocol: as §1, §2

[3] = target: T3, GST-MMACHC-wt (Homo sapiens, UniProt Q9Y4U1); assay: UV-visible absorption spectra, base-on/base-off binding; settings: 5 μM cobalamin, 50 μM protein, pH 7.0
T3 construct: made in house
T3 sequence (Q9Y4U1 1-282): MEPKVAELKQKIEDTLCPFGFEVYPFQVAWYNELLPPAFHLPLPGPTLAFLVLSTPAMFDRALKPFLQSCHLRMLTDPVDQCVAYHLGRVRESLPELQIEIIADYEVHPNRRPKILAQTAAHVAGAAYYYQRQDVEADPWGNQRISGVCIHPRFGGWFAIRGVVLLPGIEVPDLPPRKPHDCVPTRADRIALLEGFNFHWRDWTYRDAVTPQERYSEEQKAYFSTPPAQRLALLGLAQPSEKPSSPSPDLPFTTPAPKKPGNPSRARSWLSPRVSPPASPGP
Protocol: (§3) To determine base-on or base-off binding, 5 μM of the appropriate cobalamin or cobinamde in buffer (100 mM Tris, pH 7.0), was incubated in the dark with 400 μl total of 50 μM MMACHC protein (wild-type or R161Q), prepared in the same buffer, or alone, for 5 min at room temperature. In order to retain the high amounts of protein necessary for these experiments, the His-tag (wt and R161Q) or GST-tag (wt protein) was left on. Absorption spectrum measurements were carried out using a MOS-250 spectrometer and recorded using Bio-Kine 32 v4.20 software.
(§4) In order to determine whether the R161Q mutation interferes with the ability of MMACHC to support this transition, we examined the UV–visible absorption spectra for the proteins bound to AdoCbl, as an example of an alkylcobalamin, as well as for the proteins bound to CNCbl and OHCbl. Each cobalamin was added at a concentration of […] (Fig. 5). To determine whether the cobalamin was base-on or base-off, in the case of CNCbl both base-on and base-off spectra were determined for the free vitamin, as previously reported [[12,14]]. […] Confirming our earlier data, GST-tagged MMACHC-wt bound CNCbl in the base-off state (Table 2). […] Both MMACHC-wt and MMACHC-R161Q bound AdoCbl in the base-off state (Fig. 5; Table 2). […] Finally, neither MMACHC-wt nor MMACHC-R161Q modified OHCbl binding, which retained the base-on profile regardless of the MMACHC species present (Fig. 5; Table 2).

[4] = target: T4, His-MMACHC-wt (Homo sapiens, UniProt Q9Y4U1); assay: as above; settings: 5 μM cobalamin, 50 μM protein, pH 7.0
T4 construct: made in house; host or cells: E. coli BL21 DE3
T4 sequence (Q9Y4U1 1-282): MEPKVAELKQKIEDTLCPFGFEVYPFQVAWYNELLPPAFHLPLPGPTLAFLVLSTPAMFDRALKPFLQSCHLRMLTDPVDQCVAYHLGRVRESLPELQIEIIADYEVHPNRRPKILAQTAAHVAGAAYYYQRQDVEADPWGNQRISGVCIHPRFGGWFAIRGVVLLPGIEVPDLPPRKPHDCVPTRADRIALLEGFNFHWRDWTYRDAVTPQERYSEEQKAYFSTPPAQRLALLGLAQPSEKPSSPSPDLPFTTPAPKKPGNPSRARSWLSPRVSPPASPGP
Protocol: as §3, §4

[5] = target: T5, His-MMACHC-R161Q (Homo sapiens, UniProt Q9Y4U1, R161Q); assay: as above; settings: 5 μM cobalamin, 50 μM protein, pH 7.0
T5 construct: made in house; host or cells: E. coli BL21 DE3
T5 sequence (Q9Y4U1 1-282 R161Q): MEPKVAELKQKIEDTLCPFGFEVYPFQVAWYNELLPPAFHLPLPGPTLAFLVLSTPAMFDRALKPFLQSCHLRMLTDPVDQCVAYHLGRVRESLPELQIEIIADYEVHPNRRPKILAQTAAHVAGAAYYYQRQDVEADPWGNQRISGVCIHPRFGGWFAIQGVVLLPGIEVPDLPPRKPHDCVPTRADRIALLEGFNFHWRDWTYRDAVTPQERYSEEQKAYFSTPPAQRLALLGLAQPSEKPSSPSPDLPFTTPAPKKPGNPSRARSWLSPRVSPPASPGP
Protocol: […] In order to retain the high amounts of protein necessary for these experiments, the His-tag (wt and R161Q) or GST-tag (wt protein) was left on. Absorption spectrum measurements were carried out using a MOS-250 spectrometer and recorded using Bio-Kine 32 v4.20 software.
as §4

[6] = UV-visible absorption spectra of free cobalamin; format: physicochemical; settings: base-on, nm
Protocol: as §3, §4

[7] = target: T4, His-MMACHC-wt; parameters: method as in PMID 18779575; settings: cited from earlier work

Row | AC50 of R161Q relative to wild-type ([1]; times/fold less effective than with MMACHC-wt) | Base-on/off [3] | α/β-Peak ([3]; nm) [nm] | Base-on/off [4] | α/β-Peak ([4]; nm) [nm] | Base-on/off [5] | α/β-Peak ([5]; nm) [nm] | α/β-Peak [6] [nm] | SMILES | ΔTm max [1] [°C] | AC50 [1] [nM] | ΔTm max [2] [°C] | AC50 [2] [nM] | binding conformation (base-on/off) [7]
1 | – | – | – | – | – | – | – | – | C/C1=C2/[N-]C([C@H](CC(N)=O)[C@@]2(C)CCC(=O)NCC(C)O)[C@]2(C)N=C(/C(C)=C3N=C(/C=C4N=C1[C@@H](CCC(N)=O)C\4(C)C)[C@@H](CCC(N)=O)[C@]\3(C)CC(N)=O)[C@@H](CCC(N)=O)[C@]2(C)CC(N)=O.[C-]#N.[C-]#N.[Co] (some centres unmarked) [Cbi, dicyanocobinamide] | 6.8 ± 0.2 | 9100 ± 1600 | 9.8 ± 0.2 | 1300 ± 200 | –
2 | similar | Off | 472 | base-off and Off | 460 | Off | 461 | 524 | CC1=C2N=C(C=C3N=C(C(C)=C4[N-]C(C(CC(N)=O)C4(C)CCC(=O)NCC(C)OP(=O)([O-])OC4C(CO)OC(n5cnc6cc(C)c(C)cc65)C4O)C4(C)N=C1C(CCC(N)=O)C4(C)CC(N)=O)C(CCC(N)=O)C3(C)C)C(CCC(N)=O)C2(C)CC(N)=O.[CH2-]C1OC(n2cnc3c(N)ncnc32)C(O)C1O.[Co+3] (centres unmarked) [AdoCbl, 5′-deoxyadenosylcobalamin] | 13.2 ± 0.1 | 1100 ± 100 | 15.5 ± 0.1 | 900 ± 100 | base-off
